Reference: ChEMBL document CHEMBL4020826 (J Med Chem, 2018)

Key:
[1] = biological target: T1, Metabotropic glutamate receptor 4 (Homo sapiens, UniProt Q14833); test: Antagonist activity at recombinant human mGlu4 receptor expressed in hamster AV12 cells co-expressing rat EAAT1/Galpha15 assessed as inhibition of glutamate induced increase in Ca2+ flux after 2.5 mins by Fluo-3 AM dye-based FLIPR assay; format: functional, cell-based
[2] = biological target: T2, Metabotropic glutamate receptor 7 (Homo sapiens, UniProt Q14831); test: Antagonist activity at recombinant human mGlu7 receptor expressed in hamster AV12 cells co-expressing rat EAAT1/Galpha15 assessed as inhibition of glutamate induced increase in Ca2+ flux after 2.5 mins by Fluo-3 AM dye-based FLIPR assay; format: functional, cell-based
T2 sequence (Q14831 whole entry): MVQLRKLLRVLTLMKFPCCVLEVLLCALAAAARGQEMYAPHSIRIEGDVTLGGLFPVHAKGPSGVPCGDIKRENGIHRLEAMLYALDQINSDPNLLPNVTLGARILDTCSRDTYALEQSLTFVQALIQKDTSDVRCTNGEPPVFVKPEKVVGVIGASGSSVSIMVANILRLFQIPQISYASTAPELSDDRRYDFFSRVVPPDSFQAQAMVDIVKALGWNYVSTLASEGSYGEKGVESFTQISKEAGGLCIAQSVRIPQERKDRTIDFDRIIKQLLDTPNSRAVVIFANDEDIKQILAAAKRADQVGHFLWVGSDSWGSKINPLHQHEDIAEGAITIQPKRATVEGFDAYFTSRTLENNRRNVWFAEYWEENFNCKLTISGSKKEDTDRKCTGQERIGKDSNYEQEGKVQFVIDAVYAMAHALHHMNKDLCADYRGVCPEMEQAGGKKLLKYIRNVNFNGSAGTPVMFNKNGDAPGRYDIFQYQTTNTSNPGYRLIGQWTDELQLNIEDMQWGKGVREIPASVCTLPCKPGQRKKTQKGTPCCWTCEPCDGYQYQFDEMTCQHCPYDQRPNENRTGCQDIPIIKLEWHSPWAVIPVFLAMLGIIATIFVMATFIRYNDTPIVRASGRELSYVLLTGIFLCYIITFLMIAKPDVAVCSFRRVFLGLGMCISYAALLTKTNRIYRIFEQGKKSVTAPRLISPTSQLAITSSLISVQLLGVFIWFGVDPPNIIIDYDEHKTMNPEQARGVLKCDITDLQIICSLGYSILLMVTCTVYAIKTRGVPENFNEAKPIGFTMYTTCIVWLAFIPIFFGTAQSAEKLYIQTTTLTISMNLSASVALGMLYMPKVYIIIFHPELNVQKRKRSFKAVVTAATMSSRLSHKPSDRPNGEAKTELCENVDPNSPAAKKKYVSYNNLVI

[3] = Drug level in Sprague-Dawley rat CSF at 3 mg/kg, sc administered as single dose measured after 1 hr post dose by LC-MS/MS analysis; format: ADME, organism-based, Cerebrospinal fluid; settings: read-out: Drug uptake
[4] = Drug level in Sprague-Dawley rat CSF at 1.5 mg/kg/day, sc administered via infusion measured after 72 hrs post dose by LC-MS/MS analysis; format: ADME, organism-based, Cerebrospinal fluid; settings: read-out: Drug uptake
[5] = biological target: Metabotropic glutamate receptor 6 (Homo sapiens, UniProt O15303); test: Agonist activity at human mGlu6 receptor expressed in hamster AV12 cells co-expressing rat EAAT1 assessed as inhibition of forskolin-stimulated cAMP formation after 20 mins by HTRF assay; format: functional, cell-based
Metabotropic glutamate receptor 6, sequence (O15303 whole entry): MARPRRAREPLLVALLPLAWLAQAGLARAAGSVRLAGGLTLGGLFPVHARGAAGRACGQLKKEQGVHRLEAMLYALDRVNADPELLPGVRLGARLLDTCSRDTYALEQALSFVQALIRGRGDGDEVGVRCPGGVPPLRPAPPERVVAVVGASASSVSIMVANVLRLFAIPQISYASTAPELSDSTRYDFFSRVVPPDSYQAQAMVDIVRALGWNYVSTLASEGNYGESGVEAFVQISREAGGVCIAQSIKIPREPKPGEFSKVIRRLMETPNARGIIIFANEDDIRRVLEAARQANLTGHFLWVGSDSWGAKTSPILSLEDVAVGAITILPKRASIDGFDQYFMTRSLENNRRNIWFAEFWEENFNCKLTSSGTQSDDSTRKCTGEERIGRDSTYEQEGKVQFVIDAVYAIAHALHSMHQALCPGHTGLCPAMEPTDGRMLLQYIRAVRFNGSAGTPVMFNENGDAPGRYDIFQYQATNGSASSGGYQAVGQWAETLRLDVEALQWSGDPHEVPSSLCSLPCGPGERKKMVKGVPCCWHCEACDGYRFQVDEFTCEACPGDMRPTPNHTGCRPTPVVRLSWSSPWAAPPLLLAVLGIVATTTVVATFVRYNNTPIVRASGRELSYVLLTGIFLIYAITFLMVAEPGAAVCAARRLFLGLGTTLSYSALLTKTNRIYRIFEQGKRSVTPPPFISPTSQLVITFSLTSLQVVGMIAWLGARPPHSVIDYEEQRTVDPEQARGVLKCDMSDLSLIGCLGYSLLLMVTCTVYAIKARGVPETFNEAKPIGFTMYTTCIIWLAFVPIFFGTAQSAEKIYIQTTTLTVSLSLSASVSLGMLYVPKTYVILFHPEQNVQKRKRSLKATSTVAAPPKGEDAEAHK

[6] = biological target: T1, Metabotropic glutamate receptor 4; test: Agonist activity at recombinant human mGlu4 receptor expressed in hamster AV12 cells co-expressing rat EAAT1/Galpha15 assessed as induction of increase in Ca2+ flux after 2.5 mins by Fluo-3 AM dye-based FLIPR assay; format: functional, cell-based
[7] = Clearance in Sprague-Dawley rat at 1 mg/kg, iv measured over 8 hrs by LC-MS/MS analysis; format: ADME, organism-based; settings: in vivo
[8] = Drug level in Sprague-Dawley rat CSF at 0.3 mg/kg, sc administered as single dose measured after 1 hr post dose by LC-MS/MS analysis; format: ADME, organism-based, Cerebrospinal fluid; settings: read-out: Drug uptake
CYP2D6 = CYP2D6 (Homo sapiens, UniProt P10635); test: Inhibition of human CYP2D6 at 10 uM; format: ADME
[9] = Plasma concentration in Sprague-Dawley rat at 15 mg/kg/day, sc administered via infusion measured after 24 hrs post dose by LC-MS/MS analysis; format: ADME, organism-based
[10] = biological target: T3, Metabotropic glutamate receptor 1 (Homo sapiens, UniProt Q13255); test: Antagonist activity at recombinant human mGlu1 receptor expressed in hamster AV12 cells co-expressing rat EAAT1/Galpha15 assessed as inhibition of glutamate induced increase in Ca2+ flux after 2.5 mins by Fluo-3 AM dye-based FLIPR assay; format: functional, cell-based
T3 sequence (Q13255 whole entry, the tested form may be a part): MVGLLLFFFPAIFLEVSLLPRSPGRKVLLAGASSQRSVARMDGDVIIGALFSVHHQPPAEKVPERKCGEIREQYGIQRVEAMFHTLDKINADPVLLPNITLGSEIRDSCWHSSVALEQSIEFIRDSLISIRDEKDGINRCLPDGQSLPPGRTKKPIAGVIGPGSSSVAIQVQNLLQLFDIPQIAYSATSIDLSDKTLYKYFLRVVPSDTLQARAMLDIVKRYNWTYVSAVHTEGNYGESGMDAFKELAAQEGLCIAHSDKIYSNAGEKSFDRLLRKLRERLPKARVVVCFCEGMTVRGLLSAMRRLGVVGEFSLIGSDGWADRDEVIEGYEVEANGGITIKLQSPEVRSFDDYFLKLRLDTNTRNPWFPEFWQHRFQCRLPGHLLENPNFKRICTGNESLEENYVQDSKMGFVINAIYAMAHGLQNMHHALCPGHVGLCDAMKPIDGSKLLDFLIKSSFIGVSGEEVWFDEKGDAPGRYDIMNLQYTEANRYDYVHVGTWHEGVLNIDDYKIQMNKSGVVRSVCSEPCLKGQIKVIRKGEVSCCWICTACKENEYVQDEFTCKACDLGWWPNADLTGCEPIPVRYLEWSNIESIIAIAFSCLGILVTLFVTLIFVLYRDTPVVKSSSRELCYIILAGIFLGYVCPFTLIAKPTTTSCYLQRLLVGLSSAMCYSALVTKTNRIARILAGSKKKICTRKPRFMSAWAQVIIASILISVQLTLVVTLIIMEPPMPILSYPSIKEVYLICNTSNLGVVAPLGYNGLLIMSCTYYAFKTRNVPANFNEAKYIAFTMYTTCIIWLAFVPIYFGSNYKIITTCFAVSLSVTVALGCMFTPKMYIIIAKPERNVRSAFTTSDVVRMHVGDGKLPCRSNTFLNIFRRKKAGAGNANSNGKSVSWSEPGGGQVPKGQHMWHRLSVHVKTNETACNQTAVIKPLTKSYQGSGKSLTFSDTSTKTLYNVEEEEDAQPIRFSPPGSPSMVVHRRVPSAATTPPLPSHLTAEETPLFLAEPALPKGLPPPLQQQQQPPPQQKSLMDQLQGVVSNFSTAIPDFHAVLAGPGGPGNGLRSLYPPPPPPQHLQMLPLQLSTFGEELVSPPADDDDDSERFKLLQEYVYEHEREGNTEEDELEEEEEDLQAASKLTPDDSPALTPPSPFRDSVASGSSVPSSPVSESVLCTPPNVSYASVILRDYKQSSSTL

[11] = Drug level in Sprague-Dawley rat CSF at 0.5 mg/kg/day, sc administered via infusion measured after 72 hrs post dose by LC-MS/MS analysis; format: ADME, organism-based, Cerebrospinal fluid; settings: read-out: Drug uptake
Rattus norvegicus [12] = species: Rattus norvegicus; test: Drug metabolism in Sprague-Dawley rat assessed as (1S,2S,4S,5R,6S)-2-Amino-4-[(3-hydroxybenzoyl)amino]-bicyclo[3.1.0]hexane-2,6-dicarboxylic Acid formation measured over 24 hrs; format: ADME
[13] = biological target: Group II metabotropic glutamate receptor (mGlu2/mGlu3) (Rattus norvegicus, UniProt P31421+P31422); test: Displacement of [3H]-LY459477 from mGlu2/3 receptor in Sprague-Dawley rat forebrain primary cortical membranes after 90 mins by liquid scintillation counting
[14] = Plasma concentration in Sprague-Dawley rat at 0.5 mg/kg/day, sc administered via infusion measured after 12 hrs post dose by LC-MS/MS analysis; format: ADME, organism-based
[15] = Drug metabolism in dog liver microsomes at 4 uM; format: ADME, Canis lupus familiaris, microsome; settings: read-out: Drug metabolism
[16] = Plasma concentration in Sprague-Dawley rat at 1.5 mg/kg/day, sc administered via infusion measured after 48 hrs post dose by LC-MS/MS analysis; format: ADME, organism-based
[17] = Drug level in Sprague-Dawley rat CSF at 0.1 mg/kg, sc administered as single dose measured after 1 hr post dose by LC-MS/MS analysis; format: ADME, organism-based, Cerebrospinal fluid; settings: read-out: Drug uptake
[18] = Aqueous solubility of the compound at pH 7.4; format: physicochemical; settings: buffer
Rattus norvegicus [19] = test: Toxicity in Sprague-Dawley rat assessed as reduction in spontaneous locomotive activity at 30 mg/kg, sc after 90 mins; format: organism-based; design: scale not given: the % may be the effect or the level left; settings: in vivo, 1.5 h
[20] = Fraction unbound in rat plasma; format: ADME, cell-free
[21] = Plasma concentration in Sprague-Dawley rat at 0.5 mg/kg/day, sc administered via infusion measured after 48 hrs post dose by LC-MS/MS analysis; format: ADME, organism-based
[22] = Plasma concentration in Sprague-Dawley rat at 3 mg/kg, sc administered as single dose measured after 1 hr post dose by LC-MS/MS analysis; format: ADME, organism-based
[23] = biological target: Voltage-gated inwardly rectifying potassium channel KCNH2 (Homo sapiens, UniProt Q12809); test: Displacement of [3H]-dofetilide from human ERG
Voltage-gated inwardly rectifying potassium channel KCNH2, sequence (Q12809 whole entry, the tested form may be a part): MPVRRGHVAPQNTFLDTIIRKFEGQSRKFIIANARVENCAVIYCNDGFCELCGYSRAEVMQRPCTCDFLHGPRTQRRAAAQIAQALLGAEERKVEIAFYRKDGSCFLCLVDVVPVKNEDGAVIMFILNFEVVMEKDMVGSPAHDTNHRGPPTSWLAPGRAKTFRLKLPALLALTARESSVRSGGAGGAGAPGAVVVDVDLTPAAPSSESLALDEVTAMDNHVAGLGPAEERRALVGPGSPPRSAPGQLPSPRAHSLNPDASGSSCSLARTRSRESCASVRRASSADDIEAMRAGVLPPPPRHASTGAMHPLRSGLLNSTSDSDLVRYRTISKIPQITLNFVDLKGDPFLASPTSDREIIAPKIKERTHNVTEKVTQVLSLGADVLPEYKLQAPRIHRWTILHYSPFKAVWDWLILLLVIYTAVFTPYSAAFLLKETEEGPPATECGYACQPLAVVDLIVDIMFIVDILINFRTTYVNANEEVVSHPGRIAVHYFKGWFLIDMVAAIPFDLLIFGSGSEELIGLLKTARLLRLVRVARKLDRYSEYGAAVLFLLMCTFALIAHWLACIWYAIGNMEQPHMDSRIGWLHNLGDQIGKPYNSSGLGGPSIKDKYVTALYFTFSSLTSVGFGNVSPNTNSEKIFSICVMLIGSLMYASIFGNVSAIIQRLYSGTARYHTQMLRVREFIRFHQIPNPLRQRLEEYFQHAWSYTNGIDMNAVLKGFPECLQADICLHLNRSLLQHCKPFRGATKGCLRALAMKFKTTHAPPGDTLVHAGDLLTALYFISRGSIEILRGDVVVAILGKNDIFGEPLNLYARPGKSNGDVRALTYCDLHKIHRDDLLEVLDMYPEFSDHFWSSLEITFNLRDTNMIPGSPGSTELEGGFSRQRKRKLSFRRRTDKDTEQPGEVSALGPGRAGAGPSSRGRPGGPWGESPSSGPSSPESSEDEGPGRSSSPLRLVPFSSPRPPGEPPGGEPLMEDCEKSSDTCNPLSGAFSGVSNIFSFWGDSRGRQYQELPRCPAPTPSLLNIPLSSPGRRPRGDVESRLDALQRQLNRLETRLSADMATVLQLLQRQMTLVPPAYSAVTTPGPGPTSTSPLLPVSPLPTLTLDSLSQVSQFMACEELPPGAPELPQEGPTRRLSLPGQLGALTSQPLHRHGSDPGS

[24] = Plasma concentration in Sprague-Dawley rat at 5 mg/kg/day, sc administered via infusion measured after 24 hrs post dose by LC-MS/MS analysis; format: ADME, organism-based
[25] = Plasma concentration in Sprague-Dawley rat at 1.5 mg/kg/day, sc administered via infusion measured after 72 hrs post dose by LC-MS/MS analysis; format: ADME, organism-based
[26] = biological target: T3, Metabotropic glutamate receptor 1; test: Agonist activity at recombinant human mGlu1 receptor expressed in hamster AV12 cells co-expressing rat EAAT1/Galpha15 assessed as induction of increase in Ca2+ flux after 2.5 mins by Fluo-3 AM dye-based FLIPR assay; format: functional, cell-based
[27] = biological target: Metabotropic glutamate receptor 8 (Homo sapiens, UniProt O00222); test: Antagonist activity at recombinant human mGlu8 receptor expressed in hamster AV12 cells co-expressing rat EAAT1/Galpha15 assessed as inhibition of glutamate induced increase in Ca2+ flux after 2.5 mins by Fluo-3 AM dye-based FLIPR assay; format: functional, cell-based
[28] = Drug level in Sprague-Dawley rat CSF at 5 mg/kg/day, sc administered via infusion measured after 72 hrs post dose by LC-MS/MS analysis; format: ADME, organism-based, Cerebrospinal fluid; settings: read-out: Drug uptake
[29] = Plasma concentration in Sprague-Dawley rat at 1.5 mg/kg/day, sc administered via infusion measured after 12 hrs post dose by LC-MS/MS analysis; format: ADME, organism-based
[30] = Cmax in Sprague-Dawley rat at 1 mg/kg, iv measured over 8 hrs by LC-MS/MS analysis; format: ADME, organism-based; design: dose 1 mg/kg, route intravenous; settings: in vivo
[31] = Plasma concentration in Sprague-Dawley rat at 0.3 mg/kg, sc administered as single dose measured after 1 hr post dose by LC-MS/MS analysis; format: ADME, organism-based
[32] = biological target: Metabotropic glutamate receptor 2 (Homo sapiens, UniProt Q14416); test: Agonist activity at recombinant human mGlu2 receptor expressed in hamster AV12 cells co-expressing rat EAAT1/Galpha15 assessed as induction of increase in Ca2+ flux after 2.5 mins by Fluo-3 AM dye-based FLIPR assay
[33] = biological target: T2, Metabotropic glutamate receptor 7; test: Agonist activity at recombinant human mGlu7 receptor expressed in hamster AV12 cells co-expressing rat EAAT1/Galpha15 assessed as induction of increase in Ca2+ flux after 2.5 mins by Fluo-3 AM dye-based FLIPR assay; format: functional, cell-based

T1 sequence (Q14833 whole entry): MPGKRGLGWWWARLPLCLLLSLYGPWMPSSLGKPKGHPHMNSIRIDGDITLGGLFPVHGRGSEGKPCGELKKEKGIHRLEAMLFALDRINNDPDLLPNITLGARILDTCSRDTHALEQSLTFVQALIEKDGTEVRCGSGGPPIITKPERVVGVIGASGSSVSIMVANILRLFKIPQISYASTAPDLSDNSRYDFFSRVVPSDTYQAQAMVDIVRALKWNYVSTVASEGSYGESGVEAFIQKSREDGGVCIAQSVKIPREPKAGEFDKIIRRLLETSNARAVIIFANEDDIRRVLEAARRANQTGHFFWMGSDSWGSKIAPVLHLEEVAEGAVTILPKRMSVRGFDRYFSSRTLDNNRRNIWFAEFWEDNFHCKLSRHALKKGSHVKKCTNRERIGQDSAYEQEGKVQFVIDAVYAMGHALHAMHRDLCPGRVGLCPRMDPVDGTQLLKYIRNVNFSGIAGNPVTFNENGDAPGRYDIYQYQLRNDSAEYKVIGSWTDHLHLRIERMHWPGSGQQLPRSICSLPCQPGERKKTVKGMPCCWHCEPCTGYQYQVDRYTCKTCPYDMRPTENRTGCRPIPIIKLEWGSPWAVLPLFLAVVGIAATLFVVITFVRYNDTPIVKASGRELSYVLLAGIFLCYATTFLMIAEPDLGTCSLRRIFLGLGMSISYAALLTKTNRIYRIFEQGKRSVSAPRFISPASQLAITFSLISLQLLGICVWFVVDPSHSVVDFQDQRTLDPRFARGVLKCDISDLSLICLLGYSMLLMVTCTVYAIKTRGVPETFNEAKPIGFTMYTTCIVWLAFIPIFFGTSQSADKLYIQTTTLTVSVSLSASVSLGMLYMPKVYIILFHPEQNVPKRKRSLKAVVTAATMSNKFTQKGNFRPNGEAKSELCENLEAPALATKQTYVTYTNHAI

For `COc1cccc(C(=O)N[C@H]2C[C@@](N)(C(=O)O)[C@@H]3[C@@H](C(=O)O)[C@@H]32)c1`, the IC50 [1] was > 12.5 µM, the IC50 [2] was > 12.5 µM and the concentration at 1 h [3] was 73.6 nM. It also gave a concentration at 72 h [4] of 7.5 nM, an EC50 [5] of 1.95 µM and an EC50 [6] of 11.8 µM. For the same compound, the clearance [7] was 18.3 mL/min/kg, the concentration at 1 h [8] was 6.91 nM and the inhibition at 10 µM (CYP2D6) was 0%. For the same compound, the concentration at 24 h [9] was 3170 nM, the IC50 [10] was > 12.5 µM and the concentration at 72 h [11] was < 7.5 nM. The Drug metabolism (Rattus norvegicus [12]) was < 2.5 nM, the Ki [13] was 0.106 µM and the concentration at 12 h [14] was 143 nM. The metabolised at 4 µM [15] was 28.9%, the concentration at 48 h [16] was 224 nM and the concentration at 1 h [17] was 2.48 nM. For the same compound, the solubility [18] was > 100 µM, the Activity (Rattus norvegicus [19]) was 36% and the fraction unbound [20] was 1. The concentration at 48 h [21] was 95.1 nM, the concentration at 1 h [22] was 7180 nM and the “inhibition (INH)” value [23] was “Not Active”. For the same compound, the concentration at 24 h [24] was 1300 nM, the concentration at 72 h [25] was 361 nM and the EC50 [26] was > 25 µM. The IC50 [27] was > 12.5 µM, the concentration at 72 h [28] was 25.2 nM and the concentration at 12 h [29] was 389 nM. The Cmax [30] was 6390 nM, the concentration at 1 h [31] was 771 nM and the EC50 [32] was 0.277 µM. For the same compound, the EC50 [33] was > 25 µM.
